Laboratory results taken from patent publication US20210268450A1, “COMPOSITION USEFUL FOR PRODUCTION OF ACIDIC GAS SEPARATION MEMBRANE” (SUMITOMO CHEMICAL COMPANY, LIMITED, priority 2018, published 2021).

Assay: acid dissociation constant in a 25° C. aqueous solution (titration method)
Format: physicochemical
Conditions: for acid dissociation constant in a 25° C. aqueous solution 1: first constant; for acid dissociation constant 2: second constant
Source text: This acid dissociation constant is a value as measured by a known titration method based on the definition of Bronsted (Shinpan Bunseki Kagaku Jikken, Nihon Bunseki Kagakukai Hokkaido Shibu ed., pp. 219 to 237).

In the case of Oc1cccc(O)c1 [Weakly acidic organic compound 1, resorcinol], the “acid dissociation constant in a 25° C. aqueous solution 1” value was 9.3 and the “acid dissociation constant 2” value was 9.8.

With Oc1cccc(O)c1O [Weakly acidic organic compound 5, pyrogallol] the “acid dissociation constant in a 25° C. aqueous solution 1” value was 9.0 and the “acid dissociation constant 2” value was 11.6.

With CS(=O)(=O)Nc1ccccc1 [Weakly acidic organic compound 4, N-phenylmethanesulfonamide] the “acid dissociation constant in a 25° C. aqueous solution” value (single constant) was 12.9.

For Oc1ccccc1O [Weakly acidic organic compound 6, catechol], the “acid dissociation constant in a 25° C. aqueous solution 1” value was 9.1 and the “acid dissociation constant 2” value was 12.1.

For Oc1cc(O)cc(O)c1 [Weakly acidic organic compound 2, phloroglucinol], the “acid dissociation constant in a 25° C. aqueous solution 1” value was 8.0, the “acid dissociation constant 2” value was 9.2 and the “acid dissociation constant 3” value (third constant) was 14.0.
